According to article PMC7229842, “Molecular basis of the multifaceted functions of human leucyl-tRNA synthetase in protein synthesis and beyond” (Nucleic Acids Research, 2020):

What was measured:
[1] = molecular target: T1, Human cytosolic leucyl-tRNA synthetase (hcLRS) (Homo sapiens, UniProt Q9P2J5); test: X-ray co-crystal structure at […] Å (as AN6426-AMP); aminoacylation inhibition IC50; format: biochemical
T1 construct: gene LARS1
Target sequence in this assay (Q9P2J5 whole entry): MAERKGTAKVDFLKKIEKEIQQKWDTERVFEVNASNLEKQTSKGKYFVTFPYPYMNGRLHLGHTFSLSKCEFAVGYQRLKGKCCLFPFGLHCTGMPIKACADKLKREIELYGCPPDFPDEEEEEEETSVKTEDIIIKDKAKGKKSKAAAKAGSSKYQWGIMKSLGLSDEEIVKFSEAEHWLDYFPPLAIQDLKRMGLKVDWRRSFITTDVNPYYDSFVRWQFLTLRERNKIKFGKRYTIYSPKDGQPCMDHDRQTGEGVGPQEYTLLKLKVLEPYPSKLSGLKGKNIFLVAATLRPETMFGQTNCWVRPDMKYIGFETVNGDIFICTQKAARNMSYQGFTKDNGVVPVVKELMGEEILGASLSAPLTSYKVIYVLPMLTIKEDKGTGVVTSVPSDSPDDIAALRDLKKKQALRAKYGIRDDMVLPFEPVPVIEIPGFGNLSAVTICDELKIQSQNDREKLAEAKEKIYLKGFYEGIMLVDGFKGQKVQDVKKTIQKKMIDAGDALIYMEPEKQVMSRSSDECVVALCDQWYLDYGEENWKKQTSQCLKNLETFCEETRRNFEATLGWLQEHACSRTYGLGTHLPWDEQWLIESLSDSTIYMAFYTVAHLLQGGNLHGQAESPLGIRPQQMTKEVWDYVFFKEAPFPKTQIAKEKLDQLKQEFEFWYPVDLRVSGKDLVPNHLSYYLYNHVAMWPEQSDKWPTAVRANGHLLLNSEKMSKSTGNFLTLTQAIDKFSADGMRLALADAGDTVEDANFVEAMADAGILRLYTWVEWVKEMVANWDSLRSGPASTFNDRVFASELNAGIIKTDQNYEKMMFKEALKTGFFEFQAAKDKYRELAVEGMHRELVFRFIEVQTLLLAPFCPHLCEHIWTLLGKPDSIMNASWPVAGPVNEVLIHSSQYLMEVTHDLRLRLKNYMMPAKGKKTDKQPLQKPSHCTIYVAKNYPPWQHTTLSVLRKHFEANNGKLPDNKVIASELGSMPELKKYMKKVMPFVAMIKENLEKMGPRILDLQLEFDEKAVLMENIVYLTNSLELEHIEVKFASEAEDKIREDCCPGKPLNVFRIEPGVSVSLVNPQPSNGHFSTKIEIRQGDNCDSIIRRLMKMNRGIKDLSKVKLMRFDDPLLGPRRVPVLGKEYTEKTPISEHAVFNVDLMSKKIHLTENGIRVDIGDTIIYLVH

[2] = molecular target: T1, Human cytosolic leucyl-tRNA synthetase (hcLRS); test: X-ray co-crystal structure, […] Å; format: binding
Target sequence in this assay (Q9P2J5 1-1070): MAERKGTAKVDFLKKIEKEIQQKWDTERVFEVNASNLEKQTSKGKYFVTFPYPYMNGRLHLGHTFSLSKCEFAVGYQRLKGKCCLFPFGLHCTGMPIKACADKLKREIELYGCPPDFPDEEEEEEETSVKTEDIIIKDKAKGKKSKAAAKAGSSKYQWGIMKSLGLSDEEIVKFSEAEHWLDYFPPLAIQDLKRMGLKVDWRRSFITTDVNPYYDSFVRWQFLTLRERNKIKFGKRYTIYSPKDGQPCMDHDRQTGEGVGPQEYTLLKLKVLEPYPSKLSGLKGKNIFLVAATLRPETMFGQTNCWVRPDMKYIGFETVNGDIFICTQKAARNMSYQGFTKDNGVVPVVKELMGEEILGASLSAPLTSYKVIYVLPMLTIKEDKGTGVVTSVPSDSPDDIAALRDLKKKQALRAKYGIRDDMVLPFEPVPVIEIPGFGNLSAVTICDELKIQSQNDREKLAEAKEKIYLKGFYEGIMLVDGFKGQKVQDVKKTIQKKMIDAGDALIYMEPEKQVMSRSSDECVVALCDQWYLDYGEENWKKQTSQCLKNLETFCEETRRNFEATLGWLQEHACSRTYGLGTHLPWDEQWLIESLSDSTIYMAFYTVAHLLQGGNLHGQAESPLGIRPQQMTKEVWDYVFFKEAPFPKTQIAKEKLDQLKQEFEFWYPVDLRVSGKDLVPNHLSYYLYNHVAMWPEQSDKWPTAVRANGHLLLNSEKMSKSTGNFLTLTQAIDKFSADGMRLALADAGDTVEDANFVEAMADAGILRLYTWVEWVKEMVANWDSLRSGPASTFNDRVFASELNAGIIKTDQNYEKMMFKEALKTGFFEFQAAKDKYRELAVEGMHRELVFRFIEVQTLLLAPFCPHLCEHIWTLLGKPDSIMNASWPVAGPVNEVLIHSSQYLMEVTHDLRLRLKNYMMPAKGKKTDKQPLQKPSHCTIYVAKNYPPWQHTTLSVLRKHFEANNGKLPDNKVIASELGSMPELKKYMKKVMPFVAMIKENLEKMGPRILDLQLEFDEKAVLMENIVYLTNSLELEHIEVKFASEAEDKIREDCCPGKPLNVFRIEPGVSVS

[3] = molecular target: T1, Human cytosolic leucyl-tRNA synthetase (hcLRS); test: aminoacylation assay with [3H]-Leu and tRNA^Leu(CAG), purified hcLRS; format: biochemical
Target sequence in this assay (Q9P2J5 whole entry): as the sequence (Q9P2J5 whole entry) above

SMILES: CCOc1ccc(Cl)c2c1B(O)OC2CN (stereo not drawn) [AN6426]
- IC50 [1]: 7.7 µM

SMILES: CC(C)C[C@H](N)C(=O)NS(=O)(=O)OC[C@H]1O[C@@H](n2cnc3c(N)ncnc32)[C@H](O)[C@@H]1O [LeuAMS]
- X-ray co-crystal structure, 2.5 Å [2]: LeuAMS, a stable analog of LeuAMP, was bound in the aminoacylation active site in our structure

SMILES: OB1OCc2cc(F)ccc21 [tavaborole]
- IC50 [3]: 14.8 µM
